These results are taken from patent US20020028942A1, “Novel process and compound” (priority 1997, published 2002).

Counter-ions that a name gives are not always drawn.

For data set [1] the following is noted: known forms, well documented in the literature; cited from earlier work.
Data set [2] in a line: Stability of aqueous solutions. Format: physicochemical. The text has this:
The feedstock for freeze-drying may be prepared conveniently by, for example, dissolution of paroxetine free base in aqueous hydrochloric acid, although other solid forms of paroxetine hydrochloride may also be dissolved. For example, the feedstock may be prepared by dissolving amorphous paroxetine hydrochloride or a crystalline paroxetine hydrochloride anhydrate, hydrate or solvate in suitable solvent. The solvent used may be pure water or a mixture of water with compatible organic solvents. […] Suitable concentrations of paroxetine hydrochloride for freeze-drying are in the range 1 to 30% by weight, preferably in the range 5% to 20% by weight.
Processing at elevated temperature may be employed to reduce the risk of unwanted crystallisation during processing but is not essential.

Data set [3] can be described thus: Solubility / dissolution in water. The format is physicochemical. The text has this:
Paroxetine hydrochloride has been described in the literature as a crystalline hemihydrate (see EP-A-0223403 of Beecham Group) and as various crystalline anhydrate forms (see WO96/24595 of SmithKline Beecham plc). These known forms are not ideally suited for all pharmaceutical applications. […] Furthermore, liquids can be dispensed into unit dosages more conveniently and precisely than solids, and the use of liquid feedstocks reduces hazards associated with dust. In addition, the known solid forms of paroxetine hydrochloride are relatively insoluble and are slow to dissolve completely.
The product is homogenous without any further processing and is obtained in 100% yield, a higher yield than is possible in any crystallisation process.

As to `Fc1ccc([C@@H]2CCNC[C@H]2COc2ccc3c(c2)OCO3)cc1` [paroxetine hydrochloride, (−)trans isomer of 4-(4′-fluorophenyl)-3-(3′,4′-methylenedioxyphenoxymethyl)-piperidine], the solubility in water result in data set [1] is on record as “low solubility in water”. Moreover, the “stability of aqueous solution” value in data set [2] (ambient temperature, once dissolved, in the absence of seeds of a crystalline form) is reported as “stable at ambient temperature for many days”. Take `Fc1ccc([C@@H]2CCNC[C@H]2COc2ccc3c(c2)OCO3)cc1` [paroxetine hydrochloride hemihydrate, Paroxetine hydrochloride hemihydrate]: the “stability of aqueous solution of a concentration suitable for freeze-drying” value in data set [2] (highly supersaturated with respect to paroxetine hydrochloride hemihydrate) is “sufficiently stable for sterile filtration and liquid processing”. Turning to `Fc1ccc([C@@H]2CCNC[C@H]2COc2ccc3c(c2)OCO3)cc1` [freeze-dried paroxetine hydrochloride, paroxetine hydrochloride], the “dissolution of the freeze-dried product” value in data set [3] is “dissolves quickly and completely”. For the same compound, the “stability of reconstituted aqueous solution” value in data set [2] (freeze-dried product dispersed in water, concentration for parenteral dosage, supersaturated with respect to hemihydrate) is listed as “sufficiently stable for liquid dispensing”.
